Results taken from patent US9474282B2, “Acid-solubilized copper-ammonium complexes and copper-zinc-ammonium complexes, compositions, preparations, methods, and uses” (priority 2013, dated 2016).
Marks after values point to notes of the source that are not given here.

How the values were obtained:
[1] = pH of stock solutions and gel formulation; type: physicochemical; details: stock solution
[2] = test system: Staphylococcus aureus strain (S1); assay: Agar plate test for antibacterial effect, area of inhibition; type: cell-based
Protocol: (§1) A 0.2 milliliter sample of the P. acnes culture was spread onto a 9 centimeter Petri dish containing BHI agar and allowed to dry.
(§2) The composition to be tested was either diluted with distilled water and 5 microliters was placed onto a 5 millimeter filter paper disc or was added to the Aloe vera-based gel (without preservatives) described above at various concentrations and a 5 microliter drop was placed onto the agar surface. The plates were then incubated at 37° C. for 24 hours (under anaerobic conditions for P. acnes), when the zones of inhibition (ZoI) were measured in millimeters) twice at a […] angle using a ruler and the average diameter (D) was calculated. The area of inhibition in mm^2 (AoI) was calculated using the formula: AoI=π×(D/2)^2.

[3] = test system: Chalara fraxinea isolate 196/28 (C. fraxinea); assay: Anti-fungal assay with plant pathogenic fungi on PDA; type: cell-based
Protocol: (§3) Chalara […] isolate 196/28 ([…]), Aspergillus niger (A. niger) and a strain isolated from powdery mildew (Pm; isolated from an apple leaf) were cultured on potato dextrose agar (PDA) at room temperature (around 22° C.). […] The plate was agitated to evenly distribute the test composition evenly through the agar (distilled water alone was used as control) and then the agar was allowed to set. […] To assess the effects of compositions on fungal growth, the diameter of the fungal hyphae was measured twice at a 90° angle using a ruler and the average diameter in millimeters was calculated. If no fungal growth could be detected by eye, the cultures were observed by phase microscopy (40×) to confirm that there was no growth (NG) as judged by visual examination.

[4] = test system: Aspergillus niger (A. niger); assay: as above; type: cell-based
Protocol: as §3

[5] = test system: Propionibacterium acnes strain ATCC 11828 (P. acnes); assay: Agar plate test for antibacterial effect, zone of inhibition; type: cell-based; details: stock diluted 1:200 in distilled water (200 microgram/milliliter elemental copper for Cu# and copper sulfate), BHI agar, 24 hours anaerobic
Protocol: as §1, §2

P. acnes = assay: Bacterial microplate cultures (MIC); type: cell-based, Propionibacterium acnes
Protocol: (§4) The aerobic bacterial strains Acinetobacter baumannii (A. baumannii), methicillin-resistant Staphylococcus aureus (MRSA) and Klebsiella pneumonia (K. pneumoniae) were isolated from swabs taken in a hospital ward. Escherichia coli (NCTC 9001; E. coli) is a clinical isolate from a patient's urinary bladder; all strains were cultured in RPMI-1640. Stock solutions of the compounds/compositions to be tested were diluted so that double dilutions in the microplate assays commenced at a 1% vol/vol concentration. Double dilutions of the compositions to be tested were prepared in RPMI-1640 in a 96-well tissue culture plate. The bacterial cultures were diluted 1:40 with fresh RPMI and added to the compositions. P. acnes was cultured as described in EXAMPLE 1 (Agar plate test methods) and a sample was diluted 1:100 with fresh BHI. Double dilutions of the compositions to be tested were prepared as described above in distilled water in a 96-well tissue culture plate (100 microliters) and 100 microliters of the diluted P. acnes culture was added. The plates were then incubated at 37° C. for 24 hours (under anaerobic conditions for P. acnes). The minimum inhibitory concentration (MIC) of the compositions was defined as the lowest concentration at which no visible bacterial growth was observed.

[6] = test system: strain isolated from powdery mildew (Pm); assay: Anti-fungal assay with plant pathogenic fungi on PDA; type: cell-based, powdery mildew (isolated from an apple leaf); details: 3 days of culture
Protocol: as §3

[7] = test system: Cryptococcus neoformans strain CCTP13; assay: Anti-fungal/yeast microplate assay (MIC, resazurin); type: cell-based; details: C. neoformans
Protocol: (§5) The three strains of Candida albicans (C. albicans) used: 1-1, 3-1 and 4-1 were isolated from human blood, vagina and oropharynx, respectively. Cryptococcus neoformans (C. neoformans) strain CCTP13 was used. All strains were cultured in RPMI-1640 medium at 37° C. The copper sulfate and Cu# compositions started at a high concentration of 200 micrograms/milliliter, whilst the Cu—Zn# compositions started at a high concentrations of 1% of the stock solution (Table 2) and zinc sulfate and phosphorous acid started with a high concentrations equivalent to those in Cu—Zn#7 and #10 (see the legend of Table 1 for details) doubling dilutions (100 microliters) of the compositions were prepared in RPMI-1640 in a 96-well tissue culture plate. Overnight C. albicans and C. neoformans cultures were diluted 1:40 and 1:10 respectively with fresh RPMI containing 40 mM MOPS buffer and 90 microliters was added to the compositions in the plate. Resazurin A (10 microliters of a 0.0675% wt/vol solution in distilled water) was added as an indicator of growth, and the cultures were incubated at 37° C. for 24 hr. The minimum inhibitory concentration (MIC) of the compounds/compositions was defined as the lowest concentration at which the resazurin A indicator remained blue (living cells convert the blue dye to a pink color).

[8] = test system: Candida albicans strains 1-1, 3-1 and 4-1; assay: as above; type: cell-based
Protocol: as §5

A-431 = assay: Cytotoxicity assay with a human squamous epithelial skin cell line (SRB assay); details: confluent A-431, 24 hours, SRB (FIG. 4)
Protocol: A-431 (ATCC) was cultured in RPMI-1640 medium supplemented with 10% fetal bovine serum and 2 mM L-glutamine (complete medium) in a humidified incubator at 37′C with a 5% CO2 in air atmosphere. For cytotoxicity experiments the cells were trypsinized, washed, counted and 2×10^4 cells were plated into the wells of flat-bottom 96-well plates in complete medium and cultured for 3 days until a confluent monolayer was formed. […] All test products were diluted in complete medium and then added in triplicate to the confluent A-431 cells which were then cultured for a further 24 hours when cytotoxicity/cell survival was quantitatively assessed using the sulforhodamine B (SRB) assay as described below.
The cells were washed twice with RPMI-1640 medium and then fixed with 10% trichloroacetic acid for 1 hour at 4° C. After washing twice with tap water, the cells were stained with SRB (0.4% w/v SRB in 1% acetic acid) for 30 min at room temperature. After washing twice with tap water the remaining stain was dissolved in 10 mM Tris base and the absorbance of the wells was measured on a Dynatech Multiplate ELISA reader at 540 nm. Percent cell survival was calculated by dividing the test product absorbance by control absorbance and multiplying by 100.

[9] = test system: Escherichia coli (NCTC 9001; E. coli); assay: Bacterial microplate cultures (MIC); type: cell-based; details: RPMI-1640, 24 hours
Protocol: as §4

[10] = test system: Klebsiella pneumonia (K. pneumoniae); assay: Bacterial microplate cultures (MIC); type: cell-based; details: RPMI-1640, 24 hours
Protocol: as §4

[11] = test system: methicillin-resistant Staphylococcus aureus (MRSA); assay: Bacterial microplate cultures (MIC); type: cell-based; details: RPMI-1640, 24 hours
Protocol: as §4

[12] = test system: Acinetobacter baumannii (A. baumannii); assay: Bacterial microplate cultures (MIC); type: cell-based; details: RPMI-1640, 24 hours
Protocol: as §4

[13] = Experiment #1, 24 hours anaerobic
[14] = C. albicans strain 1-1, copper-free controls, concentration of zinc sulfate or phosphorous acid
[15] = C. albicans strain 3-1, copper-free controls, concentration of zinc sulfate or phosphorous acid
[16] = C. albicans strain 4-1, copper-free controls, concentration of zinc sulfate or phosphorous acid

In the case of `O=S(=O)([O-])[O-].[Cu+2]` [Copper sulfate, copper sulfate], the “pH of stock solutions” value [1] is reported as 3.4, the “Area of inhibition (AoI)” value ([2]; dissolved in gel, 800 micrograms/milliliter, TSA, 24 hours (FIG. 1)) is reported as 28 mm^2 and the “Diameter of fungal growth (mm)” value ([3]; 3.75 μg/ml, Day 7) is reported as 14 mm. For the same compound, the “Diameter of fungal growth (mm)” value ([3]; 3.75 μg/ml, Day 15) was 20 mm, the “Diameter of fungal growth (mm)” value ([3]; 12.5 μg/ml, Day 7) was 14 mm and the “Diameter of fungal growth (mm)” value ([3]; 12.5 μg/ml, Day 15) was 20 mm. For the same compound, the “Diameter of fungal growth (mm)” value ([3]; 37.5 μg/ml, Day 7) was 13 mm, the “Diameter of fungal growth (mm)” value ([3]; 37.5 μg/ml, Day 15, 20 mm = confluent) was 20** mm and the “Diameter of fungal growth (mm)” value ([3]; 125 μg/ml, Day 7) was 10 mm. For the same compound, the “Diameter of fungal growth (mm)” value ([3]; 125 μg/ml, Day 15) was 18 mm, the “Diameter of fungal growth (mm)” value ([4]; 12.5 μg/ml, Day 4) was 15 mm and the “Diameter of fungal growth (mm)” value ([4]; 12.5 μg/ml, Day 7) was 17 mm. For the same compound, the “Diameter of fungal growth (mm)” value ([4]; 12.5 μg/ml, Day 11) was 18 mm, the “Diameter of fungal growth (mm)” value ([4]; 37.5 μg/ml, Day 4) was 13 mm and the “Diameter of fungal growth (mm)” value ([4]; 37.5 μg/ml, Day 7) was 16 mm. The “Diameter of fungal growth (mm)” value ([4]; 37.5 μg/ml, Day 11) was 18 mm, the “Diameter of fungal growth (mm)” value ([4]; 125 μg/ml, Day 4, NG = no growth by phase microscopy) was 7 mm and the “Diameter of fungal growth (mm)” value ([4]; 125 μg/ml, Day 7, NG = no growth) was 10 mm. The “Diameter of fungal growth (mm)” value ([4]; 125 μg/ml, Day 11, NG = no growth) was 15 mm, the “Zone of Inhibition (mm)” value [5] was 13 mm and the “MIC” value (P. acnes; [13]) was 100 mg/L. For the same compound, the “MIC” value (P. acnes; Experiment #2, 24 hours anaerobic) was 200 mg/L, the “Diameter of fungal growth (mm)” value ([6]; 12.5 μg/ml) was 17 mm and the “Diameter of fungal growth (mm)” value ([6]; 37.5 μg/ml) was 17 mm. For the same compound, the “Diameter of fungal growth (mm)” value ([6]; 125 μg/ml) was 13 mm, the “Diameter of fungal growth (mm)” value ([6]; 375 μg/ml, NG = no growth) was 3* mm and the “MIC (μg/ml Cu^2+)” value ([7]; 24 hr) was 6.3 μg/ml Cu^2+. For the same compound, the “MIC (μg/ml Cu^2+)” value ([8]; C. albicans strain 1-1, 24 hr) was 6.3 μg/ml Cu^2+, the “MIC (μg/ml Cu^2+)” value ([8]; C. albicans strain 3-1, 24 hr) was 6.3 μg/ml Cu^2+ and the “MIC (μg/ml Cu^2+)” value ([8]; C. albicans strain 4-1, 24 hr) was 6.3 μg/ml Cu^2+. For the same compound, the “50% cytotoxic concentrations (CC50)” value (A-431) was 50 micrograms/milliliter, the MIC [9] was 100 microgram/milliliter and the MIC [10] was 50 microgram/milliliter. The MIC [11] was 12.5 microgram/milliliter and the MIC [12] was 6.3 microgram/milliliter.
`OP(O)O` [Composition H3PO3, phosphorous acid] gave an MIC [8, 14] of over 500 µg/mL, an MIC [8, 15] of over 500 µg/mL and an MIC [8, 16] of over 500 µg/mL. It also gave an MIC ([8]; C. albicans strains) of over 500 micrograms/milliliter.
For `O=S(=O)([O-])[O-].[Zn+2]` [Zinc sulfate, zinc sulfate], the “effect on the growth of S1 (S. aureus)” value ([2]; alone in gel, 50-200 micrograms/milliliter (FIG. 2)) was “no effect”, the “effect on the growth of S1 (S. aureus)” value ([2]; in gel, 100 micrograms/milliliter (FIG. 3)) was “no effect” and the “MIC” value (P. acnes; [13]) was 25 mg/L. The “MIC” value (P. acnes; Table 5 experiment, varying Cu:Zn ratios) was 50 mg/L, the MIC ([7]; copper-free control, concentration of zinc sulfate) was over 150 mg/L and the MIC [8, 14] was over 150 µg/mL. It also gave an MIC [8, 15] of over 150 µg/mL, an MIC [8, 16] of over 150 µg/mL and an MIC ([8]; C. albicans strains) of over 150 micrograms/milliliter.
